Columns and labels:
B6 male mice [1] = assay: Insulin level, insulin tolerance test and liver insulin signalling after three-month treatment; type: in vivo, mouse
Procedure: B6 male mice (8-week-old) were subjected daily for three months to a subcutaneous injection of either vehicle (NaCl 0.9%), Dex, CpdX, CpdX(eA), CpdX(eB), CpdX-D3, CpdX-D3(eA) or CpdX-D3(eB) (1 mg/kg body weight, diluted in vehicle). After three months, the blood was collected at 10 a.m. by retro-orbital puncture in lithium-heparin coated vials, and the plasmatic level of insulin was determined.
For the intraperitoneal insulin tolerance test (IPITT), mice were fasted for 6 hours before test. The blood glucose concentration was measured both before (T0) and during a one-hour period after insulin i.p. injection (0.75 U/kg body weight).
Following this three-month treatment, liver samples were harvested and lysed in the RIPA buffer (20 mM Tris pH 8, 150 mM NaCl, 10% glycerol, 1% NP-40 and 2 mM EDTA). Antibodies from Cell Signaling were used to assess by Western-Blotting the relative level of p-IRS1 (S318), IRS-1, p-AKT (S473) and AKT.

B6 male mice [2] = assay: Fatty liver after three-month treatment; type: in vivo, mouse; details: three months
Procedure: B6 male mice (8-week-old) were daily subjected for three months to a subcutaneous injection of either vehicle (NaCl 0.9%), Dex, CpdX, CpdX(eA), CpdX(eB), CpdX-D3, CpdX-D3(eA) or CpdX-D3(eB) (1 mg/kg body weight, diluted in vehicle). Following this treatment, blood was collected at 10 a.m. by retro-orbital puncture in lithium-heparin coated vials. The plasmatic levels of total cholesterol and bile acids were determined.
Liver samples were harvested. […] RNA transcripts were extracted from liver samples and the transcripts of fatty acid synthase (FASN) and Stearoyl-CoA desaturase 1 (SCD1) genes were analyzed by q-RT-PCR.

Balb/C mice = assay: Skin atrophy after 8-day topical treatment of dorsal skin; type: in vivo, mouse
Source text: To investigate whether, similarly to Dex, a topical administration of CpdX could result in a skin atrophy, Balb/C mice were shaved on the dorsal skin. Ethanol (vehicle), Dex, CpdX or either one of its two enantiomers CpdX(eA) or CpdX(eB), as well as the deuterated form CpdX-D3 or either one of its two enantiomers CpdX-D3(eA) or CpdX-D3(eB), were topically applied onto the dorsal skin for 8 days.
Upon completion of the treatments, RNA transcripts were extracted from dorsal skin samples and the transcripts of Kindlin-1 and REDD1 genes were analyzed by q-RT-PCR. Histological and morphometric analyses of the dorsal skin were also performed.

B6 male mice [3] = assay: Bone formation after three-month treatment (micro-CT, WNT16 transcripts); type: in vivo, mouse; details: three months
Procedure: B6 male mice (8-week-old) were daily subjected for three months to either a subcutaneous injection of vehicle (NaCl 0.9%), Dex, CpdX, CpdX(eA), CpdX(eB), CpdX-D3, CpdX-D3(eA) or CpdX-D3(eB) (1 mg/kg body weight, diluted in NaCl 0.9%).
From each animal included in the experiments, one femur and the ipsilateral tibia were dissected and preserved in 70% ethanol for further bone microstructure analysis by micro-CT. The FX Quantum micro-CT scanner (Perkin Elmer) was used to perform measurements at the distal femur and midshaft tibia. All scans were performed with an isotropic voxel size of 10 μm, 160 μA tube current and 90 kV tube voltage.
Morphological 3D measurements were performed using the CTAn software (Bruker). Cortical bone parameters, which were measured in the tibia midshaft, included measures of the bone volume fraction as compared to the total volume, cortical thickness, total area, bone area and marrow area. The region of interest was selected from below the distal tibial crest and continued for 20 slices toward the proximal end of the tibia. Trabecular bone parameters were measured in the distal metaphysis of the femurs and included bone volume fraction, trabecular thickness, trabecular number and trabecular spacing. The region of interest was selected from below the distal growth plate where the epiphyseal cap structure completely disappeared and continued for 100 slices toward the proximal end of the femur.
The statistical significance as compared to vehicle treatment was calculated through one-way ANOVA test followed by Dunn's multiple comparison test, *p<0.05; **p<0.01; ***p<0.001; ****p<0.0001.

B6 male mice [4] = assay: Body weight and body composition after three-month treatment; type: in vivo, mouse; details: s.c. 1 mg/kg daily, 3 months
Procedure: B6 male mice (8-week-old) were daily subjected for three months to a subcutaneous injection of either vehicle (NaCl 0.9%), Dex, CpdX or CpdX-D3 (1 mg/kg body weight, diluted in vehicle. A pDEXA machine was used to determine the lean mass and fat mass. The statistical significance was calculated through Krustal-Walis test followed by a Dunn's multiple comparison test, *p<0.05; **p<0.01; ***p<0.001.

B6 male mice [5] = assay: Corticosterone synthesis and adrenal gland after three-month treatment; type: in vivo, mouse
Procedure: B6 male mice (8-week-old) were daily subjected for three months to either a subcutaneous injection of vehicle (NaCl 0.9%), Dex, CpdX, CpdX(eA), CpdX(eB), CpdX-D3, CpdX-D3(eA) or CpdX-D3(eB) (1 mg/kg body weight, diluted in vehicle).
Following this long-term treatment, blood was collected at 10 a.m. and 6 p.m. by retro-orbital puncture in lithium-heparin coated vials, and the plasmatic level of corticosterone was determined. Adrenal glands were harvested and weighted. RNA transcripts were extracted and transcripts of the Cyp11a, Cyp11b1, Cyp11b2 and HSD3β genes were analyzed by q-RT-PCR. Histological analyses of the adrenal glands were also carried out.

B6 male mice [6] = assay: Organ weights (thymus, spleen, adrenal gland, kidney) after three-month treatment; type: in vivo, mouse; details: s.c. 1 mg/kg daily, three months
Procedure: B6 male mice (8-week-old) were daily subjected for three months to a subcutaneous injection of either vehicle (NaCl 0.9%), Dex, CpdX, CpdX(eA), CpdX(eB), CpdX-D3, CpdX-D3(eA) or CpdX-D3(eB) (1 mg/kg body weight, diluted in vehicle). Following these treatments, four organs (thymus, spleen, adrenal gland and kidney) were harvested and weighted.

B6 male mice [7] = assay: Blood glucose and intraperitoneal glucose tolerance test after three-month treatment; type: in vivo, mouse
Procedure: B6 male mice (8-week-old) were daily subjected for three months to a subcutaneous injection of either vehicle (NaCl 0.9%), Dex, CpdX, CpdX(eA), CpdX(eB), CpdX-D3, CpdX-D3(eA) or CpdX-D3(eB) (1 mg/kg body weight, diluted in vehicle). Mice were over-night-fasted. Mouse blood glucose concentration was measured before (T0) and during two hours (T120) after glucose i.p. injection ([…] body weight).

B6 male mice [8] = assay: Bone formation after three-month treatment (micro-CT, WNT16 transcripts); type: in vivo; details: mouse tibia, three months
[9] = target: T1, glucocorticoid receptor (GR) (Mus musculus, UniProt P06537); assay: GR transcriptional functions in mouse ears after topical 18-hour treatment (q-RT-PCR); type: in vivo; details: in vivo transcriptional analyses, 1 nmole/cm^2
T1 construct: RNA transcripts were then extracted from mouse ears; from tissue; host or cells: ear skin of Balb/C mice (in vivo topical treatment)
T1 sequence (P06537 1-792): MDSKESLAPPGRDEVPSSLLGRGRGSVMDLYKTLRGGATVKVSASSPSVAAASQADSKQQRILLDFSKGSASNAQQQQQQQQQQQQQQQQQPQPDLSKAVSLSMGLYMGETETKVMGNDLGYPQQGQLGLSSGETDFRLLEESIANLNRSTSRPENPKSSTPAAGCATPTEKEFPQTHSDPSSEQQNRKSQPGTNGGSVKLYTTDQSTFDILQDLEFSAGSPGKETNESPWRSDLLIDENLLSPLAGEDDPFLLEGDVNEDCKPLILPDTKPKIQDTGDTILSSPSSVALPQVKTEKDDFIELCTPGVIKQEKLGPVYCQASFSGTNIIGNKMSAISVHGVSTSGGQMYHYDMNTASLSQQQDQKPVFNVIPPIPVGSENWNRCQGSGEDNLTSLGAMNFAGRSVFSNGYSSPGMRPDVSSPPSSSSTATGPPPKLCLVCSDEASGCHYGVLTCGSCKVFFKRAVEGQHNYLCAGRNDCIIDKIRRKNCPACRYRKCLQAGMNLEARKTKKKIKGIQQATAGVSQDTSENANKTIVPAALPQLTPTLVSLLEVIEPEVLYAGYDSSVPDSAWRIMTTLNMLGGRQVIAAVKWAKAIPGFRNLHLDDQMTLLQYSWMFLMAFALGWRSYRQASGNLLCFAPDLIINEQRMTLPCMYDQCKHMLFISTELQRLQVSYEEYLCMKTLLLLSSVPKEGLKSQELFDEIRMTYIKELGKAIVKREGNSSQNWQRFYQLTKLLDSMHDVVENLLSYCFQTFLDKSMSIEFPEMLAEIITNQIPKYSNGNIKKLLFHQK
Procedure: RNA transcripts were then extracted from mouse ears and the transcripts of 4 genes were analyzed by q-RT-PCR: • (i) the directly GR-transactivated gene of the mTOR inhibitor REDD1, • (ii) the GR-directly transrepressed gene of keratin 5 (K5) and • (iii) the GR-indirectly “tethered” transrepressed genes of interleukin-1β (IL-1β) and interleukin-6 (IL-6), both being activated in presence of 12-O-tetradecanoylphorbol-13-acetate (TPA).

C[C@@H]1C[C@H]2[C@@H]3CCC4=CC(=O)C=C[C@]4(C)[C@@]3(F)[C@@H](O)C[C@]2(C)[C@@]1(O)C(=O)CO [Dex, Dexamethasone, reference compound]
IPITT test, response to insulin (B6 male mice [1]; one hour after insulin i.p. 0.75 U/kg): significant impaired response to insulin
blood insulin level (hyperinsulinemia) (B6 male mice [1]; three months, 10 a.m., 'but not' = no hyperinsulinemia): hyperinsulinemia
phosphorylation of insulin-stimulated protein kinase B (p-AKT S473) (B6 male mice [1]; western-blot, liver): decreased
phosphorylated insulin receptor substrate 1 (p-IRS1 S318) in liver extracts (B6 male mice [1]; western-blot, 'but not' = no decrease): decrease
lipid deposition in the liver (B6 male mice [2]; 5% Red oil staining of frozen sections): marked lipid deposition
transcripts of fatty acid synthase (FASN) and Stearoyl-CoA desaturase 1 (SCD1) in liver (B6 male mice [2]; q-RT-PCR, 'but not' = no increase): increase
blood cholesterol and bile acids' levels (B6 male mice [2]; 'but not' = no clear increase): clear increase
epidermal thickness decreases by (Balb/C mice; eight-day topical treatment, morphometric analysis): ≈ 65%
skin atrophy, histological analysis (Balb/C mice; eight-day topical treatment, 'in marked contrast' = no severe atrophy as with Dex): severely induces a skin atrophy
transcription of the Kindlin-1 gene in dorsal skin (Balb/C mice; topical 8 days, 1 nmole/cm^2, 'but not' = not decreased): strongly decreased
transcription of the REDD1 gene in dorsal skin (Balb/C mice; topical 8 days, 1 nmole/cm^2, 'but not' = not increased): significantly increased
bone area (B6 male mice [3]; s.c. 1 mg/kg daily, micro-CT): reduced
cortical thickness (B6 male mice [3]; s.c. 1 mg/kg daily, micro-CT): drastically decreased
tibia cortical bone volume as compared to the total volume (B6 male mice [3]; s.c. 1 mg/kg daily, micro-CT): significantly decreased
marrow area (B6 male mice [3]; s.c. 1 mg/kg daily, 'but not' = not reduced): but not
number of trabecula (B6 male mice [3]; data not shown): increase
trabecular bone volume (B6 male mice [3]; data not shown): increased
trabecular spacing (B6 male mice [3]; data not shown): decrease
trabecular thickness (B6 male mice [3]; data not shown): no change
fat mass (B6 male mice [4]; pDEXA): disproportional increase
lean percentage / lean mass (B6 male mice [4]; pDEXA): decrease
body weight (B6 male mice [4]; compared with vehicle): net loss
plasmatic corticosterone levels (B6 male mice [5]; at both 10 a.m. and 6 p.m., compared to control mice (Vehicle)): much lower
cortex layers, most notably the fasciculata zone, of the adrenal glands (B6 male mice [5]; three months, histology): drastically decreased
glomerulosa zone of the adrenal cortex (B6 male mice [5]; three months, histology, 'but not' = not decreased): drastically decreased
transcripts of Cyp11a, Cyp11b1 and HSD3β genes in adrenal glands (B6 male mice [5]; three months, q-RT-PCR): inhibited
transcript of the Cyp11b2 gene in adrenal glands (B6 male mice [5]; three months, q-RT-PCR, 'but not' = not inhibited): inhibited
kidney weight (B6 male mice [6]): weak, but significant loss
spleen weight decreased by (B6 male mice [6]): more than 50%
thymus apoptosis / thymus found (B6 male mice [6]): no thymus was found in sixteen out of nineteen mice
weight of the adrenal gland (B6 male mice [6]): decreased
blood glucose level (B6 male mice [7]; three months, over-night fasting, vs vehicle and CpdX compounds): significantly higher
blood glucose level in intraperitoneal glucose tolerance test (IPGTT) (B6 male mice [7]; two-hour period after glucose i.p. injection (2 mg/kg body weight)): significant higher
transcription of the WNT16 gene decreased by (B6 male mice [8]): 50%

Cc1ccc2c(NC[C@](O)(CC(C)(C)c3cc(F)cc4c3OCC4)C(F)(F)F)cccc2n1 [Mapracorat, reference compound]
GR functions induced (direct transactivation, direct transrepression, indirect tethered transrepression) [9]: all three GR functions
